Measured values taken from the NIST ThermoML archive (doi:10.1016/j.jct.2006.07.025).
± gives the expanded uncertainty stated by the source.

Assay: xn = mol fraction of the nth substance listed
Settings: for surface tension liquid-gas: Pendant drop shape; for mass density: 101 kPa, Liquid, Vibrating tube method

Cc1cc(C)cc(C)c1 [1,3,5-trimethylbenzene] + CCCOC(C)=O gave a surface tension liquid-gas (298.15 K, x2 = 0) of 28.09 ± 0.31 mN/m, a surface tension liquid-gas (298.15 K, x2 = 0.0996) of 27.63 ± 0.31 mN/m and a surface tension liquid-gas (298.15 K, x2 = 0.2006) of 27.16 ± 0.3 mN/m. For the same compound, the surface tension liquid-gas (298.15 K, x2 = 0.3006) was 26.7 ± 0.3 mN/m, the surface tension liquid-gas (298.15 K, x2 = 0.4003) was 26.27 ± 0.29 mN/m and the surface tension liquid-gas (298.15 K, x2 = 0.4985) was 25.85 ± 0.29 mN/m. The surface tension liquid-gas (298.15 K, x2 = 0.6001) was 25.46 ± 0.28 mN/m, the surface tension liquid-gas (298.15 K, x2 = 0.6987) was 25.09 ± 0.28 mN/m and the surface tension liquid-gas (298.15 K, x2 = 0.7983) was 24.73 ± 0.28 mN/m. It also gave a surface tension liquid-gas (298.15 K, x2 = 0.8995) of 24.35 ± 0.27 mN/m, a mass density (298.15 K, x2 = 0) of 861.04 ± 0.18 kg/m3 and a mass density (298.15 K, x2 = 0.0498) of 861.7 ± 0.17 kg/m3. The mass density (298.15 K, x2 = 0.0996) was 862.38 ± 0.17 kg/m3, the mass density (298.15 K, x2 = 0.1504) was 863.1 ± 0.17 kg/m3 and the mass density (298.15 K, x2 = 0.2006) was 863.85 ± 0.17 kg/m3. For the same compound, the mass density (298.15 K, x2 = 0.2502) was 864.63 ± 0.17 kg/m3, the mass density (298.15 K, x2 = 0.3006) was 865.46 ± 0.17 kg/m3 and the mass density (298.15 K, x2 = 0.3499) was 866.32 ± 0.16 kg/m3. For the same compound, the mass density (298.15 K, x2 = 0.4003) was 867.23 ± 0.16 kg/m3, the mass density (298.15 K, x2 = 0.4498) was 868.17 ± 0.16 kg/m3 and the mass density (298.15 K, x2 = 0.4985) was 869.14 ± 0.16 kg/m3. The mass density (298.15 K, x2 = 0.5526) was 870.28 ± 0.16 kg/m3, the mass density (298.15 K, x2 = 0.6001) was 871.33 ± 0.16 kg/m3 and the mass density (298.15 K, x2 = 0.65) was 872.49 ± 0.16 kg/m3. For the same compound, the mass density (298.15 K, x2 = 0.6987) was 873.7 ± 0.15 kg/m3, the mass density (298.15 K, x2 = 0.7369) was 874.66 ± 0.15 kg/m3 and the mass density (298.15 K, x2 = 0.7983) was 876.31 ± 0.15 kg/m3. For the same compound, the mass density (298.15 K, x2 = 0.8504) was 877.83 ± 0.15 kg/m3, the mass density (298.15 K, x2 = 0.8995) was 879.31 ± 0.15 kg/m3 and the mass density (298.15 K, x2 = 0.9397) was 880.63 ± 0.15 kg/m3. The surface tension liquid-gas (303.15 K, x2 = 0) was 27.67 ± 0.31 mN/m, the surface tension liquid-gas (303.15 K, x2 = 0.1) was 27.18 ± 0.3 mN/m and the surface tension liquid-gas (303.15 K, x2 = 0.2012) was 26.69 ± 0.3 mN/m. The surface tension liquid-gas (303.15 K, x2 = 0.2995) was 26.2 ± 0.29 mN/m, the surface tension liquid-gas (303.15 K, x2 = 0.3998) was 25.74 ± 0.29 mN/m and the surface tension liquid-gas (303.15 K, x2 = 0.4996) was 25.3 ± 0.28 mN/m. It also gave a surface tension liquid-gas (303.15 K, x2 = 0.6004) of 24.9 ± 0.28 mN/m, a surface tension liquid-gas (303.15 K, x2 = 0.7007) of 24.5 ± 0.28 mN/m and a surface tension liquid-gas (303.15 K, x2 = 0.7987) of 24.12 ± 0.27 mN/m. For the same compound, the surface tension liquid-gas (303.15 K, x2 = 0.9009) was 23.73 ± 0.27 mN/m, the mass density (303.15 K, x2 = 0) was 856.96 ± 0.18 kg/m3 and the mass density (303.15 K, x2 = 0.1) was 857.96 ± 0.17 kg/m3. For the same compound, the mass density (303.15 K, x2 = 0.2012) was 859.34 ± 0.17 kg/m3, the mass density (303.15 K, x2 = 0.2995) was 860.81 ± 0.17 kg/m3 and the mass density (303.15 K, x2 = 0.3998) was 862.5 ± 0.16 kg/m3. For the same compound, the mass density (303.15 K, x2 = 0.4996) was 864.32 ± 0.16 kg/m3, the mass density (303.15 K, x2 = 0.6004) was 866.41 ± 0.16 kg/m3 and the mass density (303.15 K, x2 = 0.7007) was 868.63 ± 0.16 kg/m3. The mass density (303.15 K, x2 = 0.7987) was 871.2 ± 0.15 kg/m3, the mass density (303.15 K, x2 = 0.9009) was 874.11 ± 0.15 kg/m3 and the surface tension liquid-gas (308.15 K, x2 = 0) was 27.24 ± 0.3 mN/m. It also gave a surface tension liquid-gas (308.15 K, x2 = 0.0985) of 26.73 ± 0.3 mN/m, a surface tension liquid-gas (308.15 K, x2 = 0.1992) of 26.2 ± 0.29 mN/m and a surface tension liquid-gas (308.15 K, x2 = 0.3018) of 25.69 ± 0.29 mN/m. For the same compound, the surface tension liquid-gas (308.15 K, x2 = 0.3991) was 25.21 ± 0.28 mN/m, the surface tension liquid-gas (308.15 K, x2 = 0.5009) was 24.75 ± 0.28 mN/m and the surface tension liquid-gas (308.15 K, x2 = 0.6012) was 24.33 ± 0.28 mN/m. The surface tension liquid-gas (308.15 K, x2 = 0.6997) was 23.91 ± 0.27 mN/m, the surface tension liquid-gas (308.15 K, x2 = 0.7983) was 23.52 ± 0.27 mN/m and the surface tension liquid-gas (308.15 K, x2 = 0.8997) was 23.11 ± 0.26 mN/m. For the same compound, the mass density (308.15 K, x2 = 0) was 852.84 ± 0.18 kg/m3, the mass density (308.15 K, x2 = 0.0985) was 853.66 ± 0.17 kg/m3 and the mass density (308.15 K, x2 = 0.1992) was 854.81 ± 0.17 kg/m3. For the same compound, the mass density (308.15 K, x2 = 0.3018) was 856.13 ± 0.17 kg/m3, the mass density (308.15 K, x2 = 0.3991) was 857.53 ± 0.17 kg/m3 and the mass density (308.15 K, x2 = 0.5009) was 859.15 ± 0.16 kg/m3. It also gave a mass density (308.15 K, x2 = 0.6012) of 861.08 ± 0.16 kg/m3, a mass density (308.15 K, x2 = 0.6997) of 863.19 ± 0.16 kg/m3 and a mass density (308.15 K, x2 = 0.7983) of 865.52 ± 0.15 kg/m3. The mass density (308.15 K, x2 = 0.8997) was 868.19 ± 0.15 kg/m3, the surface tension liquid-gas (313.15 K, x2 = 0) was 26.82 ± 0.3 mN/m and the surface tension liquid-gas (313.15 K, x2 = 0.1004) was 26.28 ± 0.29 mN/m. It also gave a surface tension liquid-gas (313.15 K, x2 = 0.1999) of 25.73 ± 0.29 mN/m, a surface tension liquid-gas (313.15 K, x2 = 0.3004) of 25.19 ± 0.28 mN/m and a surface tension liquid-gas (313.15 K, x2 = 0.3998) of 24.69 ± 0.28 mN/m. It also gave a surface tension liquid-gas (313.15 K, x2 = 0.5001) of 24.21 ± 0.27 mN/m, a surface tension liquid-gas (313.15 K, x2 = 0.6) of 23.76 ± 0.27 mN/m and a surface tension liquid-gas (313.15 K, x2 = 0.7005) of 23.33 ± 0.27 mN/m. It also gave a surface tension liquid-gas (313.15 K, x2 = 0.8003) of 22.92 ± 0.26 mN/m, a surface tension liquid-gas (313.15 K, x2 = 0.9003) of 22.5 ± 0.26 mN/m and a mass density (313.15 K, x2 = 0) of 848.74 ± 0.18 kg/m3. It also gave a mass density (313.15 K, x2 = 0.0503) of 848.97 ± 0.18 kg/m3, a mass density (313.15 K, x2 = 0.1004) of 849.28 ± 0.17 kg/m3 and a mass density (313.15 K, x2 = 0.1501) of 849.65 ± 0.17 kg/m3. For the same compound, the mass density (313.15 K, x2 = 0.1999) was 850.05 ± 0.17 kg/m3, the mass density (313.15 K, x2 = 0.2499) was 850.49 ± 0.17 kg/m3 and the mass density (313.15 K, x2 = 0.3004) was 851.02 ± 0.17 kg/m3. For the same compound, the mass density (313.15 K, x2 = 0.3502) was 851.58 ± 0.17 kg/m3, the mass density (313.15 K, x2 = 0.3998) was 852.18 ± 0.17 kg/m3 and the mass density (313.15 K, x2 = 0.449) was 852.83 ± 0.16 kg/m3. The mass density (313.15 K, x2 = 0.5001) was 853.57 ± 0.16 kg/m3, the mass density (313.15 K, x2 = 0.5502) was 854.4 ± 0.16 kg/m3 and the mass density (313.15 K, x2 = 0.6) was 855.29 ± 0.16 kg/m3. It also gave a mass density (313.15 K, x2 = 0.6503) of 856.26 ± 0.16 kg/m3, a mass density (313.15 K, x2 = 0.7005) of 857.33 ± 0.16 kg/m3 and a mass density (313.15 K, x2 = 0.7499) of 858.44 ± 0.16 kg/m3. The mass density (313.15 K, x2 = 0.8003) was 859.87 ± 0.16 kg/m3, the mass density (313.15 K, x2 = 0.8499) was 861.27 ± 0.15 kg/m3 and the mass density (313.15 K, x2 = 0.9003) was 862.85 ± 0.15 kg/m3. It also gave a mass density (313.15 K, x2 = 0.9504) of 864.3 ± 0.15 kg/m3.
